Patent US20100248255A1, “NOVEL PEPTIDES” (KYOWA HAKKO KOGYO CO., LTD, priority 2005, published 2010)
Like-named read-outs stand apart in the source and are kept apart here. No end group written: not given here.

How the values were obtained:
[1] = tested on: antiserum (rabbit, Peptide 7-KLH conjugate as antigen); experiment: Binding specificity of antiserum by competitive RIA with [125I]-labeled Peptide 1
Experimental: As controls, reactions that use RIA buffer instead of the antiserum to measure non-specific binding, and reactions […] that use RIA buffer instead of VGF-derived peptide solutions to measure the maximum binding level were carried out. Reactions for non-specific binding were performed in quadruplicates, and the other reactions were performed in duplicates, and for each of the reactants, the immune complex was precipitated as in the above-mentioned antibody titer measurements, and its radioactivity (cpm) was measured. The average radioactivity of non-specific binding reaction is defined as non-specific binding level N, the radioactivity value for each VGF-derived peptide addition reaction is defined as Y, and the radioactivity value of maximum binding reaction is defined as Z. The percentage ratio (B/B0) of antiserum specific binding level (B) with peptide addition to the maximum binding level (B0), was determined using the following formula.
B/B0 (%)={(Y−N)/(Z−N)}×100
Accordingly, the amount of peptide that achieves 50% B/B0, more specifically, the amount of peptide that yields 50% inhibition of the maximum binding level, was used as an indicator of the peptide binding activity to the antiserum.
The amounts of peptide/tube used for performing the measurements were 0.5, 1, 2, 4, 8, 16, 32, 64, 128, 256, 512 and 1024 fmol for Peptide 1; 1, 2, 4, 8, 16, 32, 64, 128, 256, 512 and 1024 fmol for Peptide 2; 1, 3.3, 10, 33, 100, 333, 1000, 3300, 10,000, 33,000, 100,000, 333,000 and 1,000,000 fmol for Peptide 3; and 1,000, 10,000, 100,000 and 1,000,000 fmol for Peptide 8.

uterus [2] = experiment: Aequorin luminescence, uterus of apoaequorin-expressing mice; type: cell-based, mouse; conditions: organ pieces, peptide final concentrations of 1 μmol/L and of 5 μmol/L
Excerpt: (§1) Whether Peptides 1 to 5, 9 and 10 synthesized in Example 2 have the activity of increasing intracellular calcium ion concentration was investigated using the organs of transgenic mice introduced with the apoaequorin gene and systemically expressing apoaequorin (hereinafter referred to as apoaequorin-expressing mice). In apoaequorin-expressing mouse cells, light is emitted when apoaequorin binds to a calcium ion in the presence of the luminescent substrate coelenterazine and thus the intracellular calcium ion concentration can be monitored. Patent Document (WO02/010371) discloses the method for producing apoaequorin-expressing mice, method for evaluating biologically active substances that use biological samples derived from the mice, and experimental results of evaluating biologically active peptides using the mouse organs as shown below. […] Therefore, apoaequorin-expressing mice can be used in the evaluation of the physiological activities of novel peptides.
(§2) Apoaequorin-expressing mice were produced according to the method disclosed in Reference Example 4 of Patent Document (WO02/010371). The apoaequorin-expressing mice were sacrificed, individual organs including thymus, spleen, bone, blood vessel, heart, kidney, adrenal gland, pancreas, pituitary gland, and uterus, were removed; and each of the organs was cut into small cubes of approximately 1 to 2 mm^3. Next, in 5-mL tubes (Rohren-Tubes; manufactured by Sarstedt, No. 55.476), three portions of each of the prepared organs were added to 50 μL of a 10 μmol/L solution of coelenterazine (manufactured by Molecular Probes) dissolved in RPMI 1640 medium, and these were cultured at 37° C. for three hours. After culturing, RPMI 1640 medium was added, and then Peptides 1 to 5, 9 and 10 dissolved in RPMI 1640 medium were added 25 seconds after the addition of RPMI 1640 until each peptide had final concentrations of 1 μmol/L and of 5 μmol/L, and the relative luminescence levels were measured every second immediately after the addition of RPMI 1640 medium by using a luminometer (AutoLumat LB953, manufactured by Berthold).

pituitary gland = experiment: Aequorin luminescence, pituitary gland of apoaequorin-expressing mice; type: cell-based, mouse; conditions: organ pieces, peptide final concentrations of 1 μmol/L and of 5 μmol/L
Excerpt: as §1, §2

thymus = experiment: Aequorin luminescence, thymus of apoaequorin-expressing mice; type: cell-based, mouse; conditions: organ pieces, peptide final concentrations of 1 μmol/L and of 5 μmol/L
Excerpt: as §1, §2

[3] = tested on: cardiac cells of the apoaequorin-expressing mice; experiment: Intracellular calcium ion increase (aequorin luminescence), heart of apoaequorin-expressing mice; type: cell-based, mouse; conditions: for intracellular calcium concentration in cardiac cells (RLU per second): added at 25 seconds; for luminescence in the heart: organ pieces, peptide final concentrations of 1 μmol/L and of 5 μmol/L
Experimental: (§3) A heart or blood vessel is collected from transgenic mice systemically expressing apoaequorin (WO02/010371) produced by introducing an apoaequorin gene expression vector into fertilized eggs. The obtained heart or blood vessel is cut finely into pieces, suspended in a medium containing coelenterazine, and then incubated to incorporate coelenterazine into the cells to form aequorin (a complex of apoaequorin and coelenterazine). Since aequorin luminesces upon binding to intracellular calcium ions, the relative luminescence level in cells before and after addition of a medium containing the peptide or a pharmaceutically acceptable salt thereof is measured in a luminometer every second over time and is used as an indicator of intracellular calcium ion concentration. Increase in the relative luminescence level due to addition of the peptide or pharmaceutically acceptable salt thereof confirms that the peptide or pharmaceutically acceptable salt thereof has the activity to increase intracellular calcium ion concentration.
as §1, §2

spleen = experiment: Aequorin luminescence, spleen of apoaequorin-expressing mice; type: cell-based, mouse; conditions: organ pieces, peptide final concentrations of 1 μmol/L and of 5 μmol/L
Excerpt: as §1, §2

[4] = tested on: vascular cells of the apoaequorin-expressing mice; experiment: Intracellular calcium ion increase (aequorin luminescence), blood vessel of apoaequorin-expressing mice; type: cell-based, mouse; conditions: for intracellular calcium concentration in vascular cells (RLU per second): 5 μmol/L of peptide, added at 25 seconds; for luminescence in the blood vessel: organ pieces, peptide final concentrations of 1 μmol/L and of 5 μmol/L
Experimental: as §3, §1, §2

[5] = tested on: vascular cells of the apoaequorin-expressing mice; conditions: final concentration of 1 μmol/L; reported in WO02/010371; cited from earlier work
uterus [6] = conditions: final concentration of 1 μmol/L; reported in WO02/010371; cited from earlier work
adrenal gland = conditions: final concentration of 1 μmol/L; reported in WO02/010371; cited from earlier work
[7] = direct administration to the paraventricular nucleus of the hypothalamus of male rats; Non-Patent Document 6; cited from earlier work
[8] = target: antiserum showing an antibody titer of 9×10^5 (rabbit antiserum raised against the conjugate between Peptide 7 and KLH); experiment: competitive RIA against [^125I]-labeled Peptide 1
[9] = non-VGF peptides at 1, 10, and 100 pmol
[10] = VGF-derived peptides, sequentially diluted

NC(=O)CC[C@@H]1NC(=O)[C@H](Cc2ccccc2)NC(=O)[C@H](Cc2ccc(O)cc2)NC(=O)[C@@H](N)CSSC[C@@H](C(=O)N2CCC[C@H]2C(=O)N[C@@H](CCCN=C(N)N)C(=O)NCC(N)=O)NC(=O)[C@H](CC(N)=O)NC1=O [vasopressin]
inhibition of antiserum binding to [125I]-labeled Peptide 1 [1, 9]: none of the peptides showed inhibition

HYHHALPPSRHYP [Peptide 1]
luminescence in the uterus (uterus [2]): luminescence was observed | inhibition of antiserum binding to [125I]-labeled Peptide 1 [1, 10]: same degree of quantity-dependent inhibition | amount of peptide for 50% inhibition of the maximum binding level (50% B/B0) ([1]; antiserum diluted 9×10^5 folds, 4° C. for 40 hours): 7.5 fmol | luminescence in the pituitary gland (pituitary gland): luminescence was observed | luminescence in the thymus (thymus): luminescence was observed | intracellular calcium concentration in cardiac cells (RLU per second) ([3]; 1 μmol/L of peptide): increase of intracellular calcium concentration | luminescence in the heart [3]: luminescence was observed

Leu-enkephalin
inhibition of antiserum binding to [125I]-labeled Peptide 1 [1, 9]: none of the peptides showed inhibition

Met-enkephalin-Arg-Gly-Leu (YGGFMRGL) [non-VGF peptide]
inhibition of antiserum binding to [125I]-labeled Peptide 1 [1, 9]: none of the peptides showed inhibition

PAMP-20
inhibition of antiserum binding to [125I]-labeled Peptide 1 [1, 9]: none of the peptides showed inhibition

PHI-27 (HADGVFTSDFSKLLGQLSAKKYLESLM; ends and bridges not checked; UniProt P01282 81-107, looked up) [non-VGF peptide]
inhibition of antiserum binding to [125I]-labeled Peptide 1 [1, 9]: none of the peptides showed inhibition

Peptide 4: positions 586 to 615 of human VGF; same sequence as peptide V derived from bovine VGF (AQEEAEAEERRLQEQEELENYIEHVLLRRP; synthetic Peptide 4, positions 586-615 of human VGF, C-terminal VGF-derived peptide)
luminescence in the pituitary gland (pituitary gland): luminescence was observed | luminescence in the thymus (thymus): luminescence was observed | luminescence in the spleen (spleen): luminescence was observed | intracellular calcium concentration in vascular cells (RLU per second) [4]: increase of intracellular calcium concentration | luminescence in the blood vessel [4]: luminescence was observed

Peptide 8: positions 606 to 615 of the human VGF amino acid sequence (YIEHVLLRRP; synthetic Peptide 8, positions 606-615 of human VGF, C-terminal VGF-derived peptide)
inhibition of antiserum binding to [125I]-labeled Peptide 1 [1, 10]: did not show any inhibition

Peptide 9: positions 485 to 503 of the amino acid sequence of human VGF (NAPPEPVPPPRAAPAPTHV; synthetic Peptide 9, positions 485-503 of human VGF, C-terminal VGF-derived peptide)
intracellular calcium concentration in vascular cells (RLU per second) [4]: increase of intracellular calcium concentration | luminescence in the blood vessel [4]: luminescence was observed

Peptide 10: positions 533 to 552 of the amino acid sequence of human VGF (EEDEVYPPGPYHPFPNYIRP; synthetic Peptide 10, positions 533-552 of human VGF, C-terminal VGF-derived peptide)
intracellular calcium concentration in vascular cells (RLU per second) [4]: increase in the intracellular calcium concentration | luminescence in the blood vessel [4]: luminescence was observed | intracellular calcium concentration in cardiac cells (RLU per second) ([3]; 1 μmol/L of peptide): increase of intracellular calcium concentration | luminescence in the heart [3]: luminescence was observed

adrenomedulin
inhibition of antiserum binding to [125I]-labeled Peptide 1 [1, 9]: none of the peptides showed inhibition

angiotensin II (DRVYIHPF) [non-VGF peptide]
luminescence in the blood vessels [5]: strong luminescence was observed | inhibition of antiserum binding to [125I]-labeled Peptide 1 [1, 9]: none of the peptides showed inhibition | luminescence in the uterus (uterus [6]): strong luminescence was observed | luminescence in the adrenal glands (adrenal gland): strong luminescence was observed

calcitonin
inhibition of antiserum binding to [125I]-labeled Peptide 1 [1, 9]: none of the peptides showed inhibition

calcitonin receptor-stimulating peptide
inhibition of antiserum binding to [125I]-labeled Peptide 1 [1, 9]: none of the peptides showed inhibition

corticotropin-releasing factor
inhibition of antiserum binding to [125I]-labeled Peptide 1 [1, 9]: none of the peptides showed inhibition

neuromedin U-8
inhibition of antiserum binding to [125I]-labeled Peptide 1 [1, 9]: none of the peptides showed inhibition

rat VGF (556-576): partial peptide of rat VGF, positions 556-576
erection inducing activity [7]: this activity was not observed

rat VGF (577-617): partial peptide of rat VGF (556-617), positions 577-617 (HHPDLEAQARRAQEEADAEERRLQEQEELENYIEHVLLHRP; UniProt P20156 577-617, looked up, fragment)
erection inducing activity [7]: showed an erection inducing activity

rat VGF (588-617): partial peptide of rat VGF (556-617), positions 588-617 (AQEEADAEERRLQEQEELENYIEHVLLHRP; UniProt P20156 588-617, looked up, fragment)
erection inducing activity [7]: showed an erection inducing activity

rat VGF (599-617): partial peptide of rat VGF (556-617), positions 599-617 (LQEQEELENYIEHVLLHRP; UniProt P20156 599-617, looked up, fragment)
erection inducing activity [7]: showed an erection inducing activity

substance K
inhibition of antiserum binding to [125I]-labeled Peptide 1 [1, 9]: none of the peptides showed inhibition

B1: Peptide 3 (SEQ ID NO: 2) (peptide)
peptide: H-TLQPPSALRRRHYHHALPPSRHYPGREAQA-OH
fold amount required for the same degree of inhibition as Peptides 1 and 2 [8]: 10000 fold

B2: Peptide 5: positions 554 to 615 in the amino acid sequence of human VGF (peptide)
chain: TLQPPSALRRRHYHHALPPSRHYPGREAQARRAQEEAEAEERRLQEQEELENYIEHVLLRRP
modifications: synthetic Peptide 5, positions 554-615 of human VGF, C-terminal VGF-derived peptide
intracellular calcium concentration in cardiac cells (RLU per second) ([3]; 5 μmol/L of peptide): increase of intracellular calcium concentration | luminescence in the heart [3]: luminescence was observed
